The values that follow come from patent US20250002954A1, “Novel Compound, Use Thereof, and Method for Producing Same, and Compound-Containing Composition, Method for Producing 4-Trehalosamine, and Microorganism” (Microbial Chemistry Research Foundation, priority 2021, published 2025).

One data set concerns human trehalase. Description: Degradation by human trehalase (cell extract liquids of KP4 and KP4-TREH, LC-MS persistence rate). In kind it is in vitro ADME. The note with it: 20 μg/mL, 37° C., up to 24 hours; for degradation by cell extract liquid of human pancreatic cancer cells KP4: control cells. As for the experimental part: In order to perform a degradation experiment with human trehalase, high expression strains of the same were made.
This plasmid was introduced into various kinds of cultured human cells using Viafect (manufactured by Promega), and the expression level of transient trehalase protein was analyzed by western blotting with 1/2,000-diluted anti-trehalase antibody (manufactured by Santa Cruz). […] Human pancreatic cancer cells KP4 into which pSF-TREH 3-3 plasmid had been introduced as described above was diluted to one cell or less per well, and applied to a 96-well microplate. They were cultured on DMEM culture medium containing 400 μg/mL of G418 (manufactured by Thermo Fisher Scientific), and clones with stable trehalase expression were selected and amplified. Ten strains of KP4-TREH which were the clones with the highest trehalase expression were chosen for use in the subsequent experiments.
Degradation of 4-trehalosamine and trehalose by cell extract liquids of human pancreatic cancer cells KP4 and 10 strains of KP4-TREH, which are cells with high human trehalase expression, was examined.
Using DMEM culture medium, each of the human pancreatic cancer cells KP4 and the 10 strains of KP4-TREH was amplified in a CO2 incubator at 37° C. until they were confluent. After that, the culture medium was removed and washed with PBS (manufactured by Takara Bio Inc.) three times, and cells were collected with a cell scraper in the PBS. After centrifuging the collected cell suspension at 400×g for 3 minutes and removing supernatant, 135 mM citric acid buffer solution (pH 5.7) containing 0.5% Triton (registered trademark) in an amount 15 times the precipitated cells was added and homogenized. The cells were centrifuged at 21,300×g for 10 minutes and the respective supernatants were collected. Aqueous solution of 4-trehalosamine or aqueous solution of trehalose was added at 20 μg/mL to each supernatant and they were left to stand at 37° C. At 0 hours, 2 hours, 8 hours, or 24 hours from the start of reaction, the reaction solutions were collected, was diluted with methanol to 1/10, and centrifuged at 21,300×g for 10 minutes. The respective supernatants were collected and LC-MS analysis was performed under similar conditions to test example 1 to determine the persistence rates of 4-trehalosamine and trehalose in the reaction solution (4TA C) of 4-trehalosamine and the cell extract liquid of human pancreatic cancer cells KP4, the reaction solution (4TA T) of 4-trehalosamine and the cell extract liquid of 10 strains of KP4-TREH, the reaction solution (TRH C) of trehalose and the cell extract liquid of human pancreatic cancer cells KP4, and the reaction solution (TRH T) of trehalose and the cell extract liquid of 10 strains of KP4-TREH.

A further data set concerns blood glucose level. The data set is described as follows: Change in blood glucose level after oral administration to mice. The note with it: single oral dose 0.5 mg per g of body weight, fasted. In kind it is in vivo, ICR mice. The procedure:
4-trehalosamine or trehalose dissolved in saline at 0.5 mg/10 μL per g of body weight was orally administered in a single dose to ICR mice (9-week to 10-week old, female, n=5) that had been fasted overnight. The five mice on which the same treatment had been performed were placed in the same cage.
In a 96-well plate, the centrifuged supernatant sample of dilution of blood with methanol prepared in <Determination of blood level of 4-trehalosamine> (a sample similar to the sample used in the LC-MS analysis) was placed at 5 µL/well and dried by suction with a vacuum pump. After that, it was dissolved in 25 μL of water, 75 μL of Glucose assay reagent (manufactured by Sigma-Aldrich) was added, and the solution was left to stand at 37° C. for 1 hour. Absorbance at 340 nm was then measured with a plate reader Cytation 5 (manufactured by Bio Tek Instruments) and the amount of glucose estimated.

The test system of data set [1] is human ovarian cancer cells OVK18 and human malignant melanoma cells Mewo. The data set is described as follows: LC3-II expression in combination with autophagy inhibitor (bafilomycin or chloroquine). The note with it: 50 mM 4-trehalosamine, 50 μM IMCTA-C14 or 100 mM trehalose 14 hours, then 200 nM BM or 100 μM CQ 4 hours. In kind it is cell-based. As for the experimental part:
As with the test example 10-1, human ovarian cancer cells OVK18 (obtained from RIKEN BRC) and human malignant melanoma cells Mewo (JCRB0066) were each inoculated on a 12-well microplate at 8×10^4 cells/mL/well, and cultured in DMEM culture medium at 37° C. for 72 hours. After that, a half of the culture fluid in each well was taken and each compound was dissolved so that the final concentration is 50 mM 4-trehalosamine, 50 μM IMCTA-C14, or 100 mM trehalose. After dissolving it sufficiently, the cells were returned to the original well and treated at 37° C. for 14 hours. Untreated cells without addition of the compounds were used as control.
After that, each autophagy inhibitor was added so that the final concentration is 200 nM bafilomycin (BM) or 100 μM chloroquine (CQ), and the cells were cultured at 37° C. for 4 hours. A group with no inhibitor added was cultured in a similar way. After culture, they were turned into samples for western blotting in a similar manner to test example 10-1.
The western blotting was performed in a similar manner to test example 4 except that anti-LC3 antibody (manufactured by Cell Signaling Technology) was used at 1/2,000 dilution as the primary antibody in the method described in test example 4. The results for human ovarian cancer cells OVK18 are shown in FIG. 21A, and the results for human malignant melanoma cells Mewo are shown in FIG. 21B.
Also, the results (graphs) of image analysis on the results of western blotting via Image J (manufactured by National Institutes of Health) are shown in FIGS. 21A and 21B (n=10, mean±S.D.). The vertical axis of the graph indicates the value of the amount of expression (expression amount ratio) of LC3-II for the groups with the different compounds added when the amount of expression of LC3-II in the control (untreated cells) is 1. […]

In the case of `N[C@H]1[C@H](O)[C@@H](O)[C@@H](O[C@H]2O[C@H](CO)[C@@H](O)[C@H](O)[C@H]2O)O[C@@H]1CO` [4-trehalosamine], in the data set on human trehalase, the “degradation by cell extract liquid of 10 strains of KP4-TREH (high human trehalase expression)” value is “almost no degradation or decrease” and the “degradation by cell extract liquid of human pancreatic cancer cells KP4” value is on record as “neither trehalose nor 4-trehalosamine was degraded”. Besides, in the data set on blood glucose level, the “change in blood glucose level” value is recorded as “no elevation in the blood glucose level was observed”. The “expression of LC3-II in combination with bafilomycin (BM) or chloroquine (CQ)” value in data set [1] is on record as “increased expression of LC3-II”.

As to `OC[C@H]1O[C@H](O[C@H]2O[C@H](CO)[C@@H](O)[C@H](O)[C@H]2O)[C@H](O)[C@@H](O)[C@@H]1O` [trehalose, reference compound], in the data set with human trehalase, the “degradation by cell extract liquid of 10 strains of KP4-TREH (high human trehalase expression)” value was “almost disappeared after 8 hours” and the “degradation by cell extract liquid of human pancreatic cancer cells KP4” value is recorded as “neither trehalose nor 4-trehalosamine was degraded”. Further, the “change in blood glucose level” value in the data set on blood glucose level is “elevation in the blood glucose level was observed 30 minutes to 1 hour after administration”. In data set [1], the “expression of LC3-II in combination with bafilomycin (BM) or chloroquine (CQ)” value was “increased expression of LC3-II”.
